# Source: PubChem BioAssay AID1918956 (Molecular Pharmacology Branch, DTP, NCI, 2023)
# System: OVCAR-5 complex spheroids, viability
# Assay: Anticancer human tumor OVCAR-5 cell line growth inhibition;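 further: spheroids exposed to agents for seven days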;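 on viability, T/C: 100% = DMSO vehicle control wells viability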
# Settings: for IC50: curve of first compound; for viability, T/C: stronger effect = lower value
# In short: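 Multicellular complex spheroids of tumor cells with human endothelial cells (HUVEC) and mesenchymal stem cells; the LSD1 inhibitor iadademstat was combined with standard-of-care or investigational agents. Top concentration at or near clinical Cmax, half-log dilutions; final DMSO ≤0.25%.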
# [1] = second compound 0.1 µM, first compound 0.000316 µM
# [2] = second compound 0.1 µM, first compound 0.001 µM
# [3] = second compound 0.1 µM, first compound 0.00316 µM
# [4] = second compound 0.1 µM, first compound 0.01 µM
# [5] = second compound 0.1 µM, first compound 0.0316 µM
# [6] = second compound 0.1 µM, first compound 0.1 µM
# [7] = second compound 0.316 µM, first compound 0.000316 µM
# [8] = second compound 0.316 µM, first compound 0.001 µM
# [9] = second compound 0.316 µM, first compound 0.00316 µM
# [10] = second compound 0.316 µM, first compound 0.01 µM
# [11] = second compound 0.316 µM, first compound 0.0316 µM
# [12] = second compound 0.316 µM, first compound 0.1 µM
# [13] = second compound 1 µM, first compound 0.000316 µM
# [14] = second compound 1 µM, first compound 0.001 µM
# [15] = second compound 1 µM, first compound 0.00316 µM
# [16] = second compound 1 µM, first compound 0.01 µM
# [17] = second compound 1 µM, first compound 0.0316 µM
# [18] = second compound 1 µM, first compound 0.1 µM
# [19] = second compound 3.16 µM, first compound 0.000316 µM
# [20] = second compound 3.16 µM, first compound 0.001 µM
# [21] = second compound 3.16 µM, first compound 0.00316 µM
# [22] = second compound 3.16 µM, first compound 0.01 µM
# [23] = second compound 3.16 µM, first compound 0.0316 µM
# [24] = second compound 3.16 µM, first compound 0.1 µM
# [25] = second compound 10 µM, first compound 0.000316 µM
# [26] = second compound 10 µM, first compound 0.001 µM
# [27] = second compound 10 µM, first compound 0.00316 µM
# [28] = second compound 10 µM, first compound 0.01 µM
# [29] = second compound 10 µM, first compound 0.0316 µM
# [30] = second compound 10 µM, first compound 0.1 µM
smiles,measurement,setting,value
CC(C)CC(NC(=O)C(Cc1ccccc1)NC(=O)c1cnccn1)B(O)O (stereo not given) + NC1CC1c1ccc(-c2cccc(O)c2)cc1,IC50,second compound 0.1 µM,7.35 nM
same,IC50,second compound 0.316 µM,6.68 nM
same,IC50,second compound 1 µM,6.31 nM
same,IC50,second compound 3.16 µM,4.44 nM
same,IC50,second compound 10 µM,4.52 nM
same,"viability, T/C",[1],111%
same,"viability, T/C",[2],103%
same,"viability, T/C",[3],75.8%
same,"viability, T/C",[4],40.9%
same,"viability, T/C",[5],14.8%
same,"viability, T/C",[6],5.74%
same,"viability, T/C",[7],111%
same,"viability, T/C",[8],98.8%
same,"viability, T/C",[9],74.6%
same,"viability, T/C",[10],37.5%
same,"viability, T/C",[11],10.7%
same,"viability, T/C",[12],3.96%
same,"viability, T/C",[13],100%
same,"viability, T/C",[14],103%
same,"viability, T/C",[15],71.6%
same,"viability, T/C",[16],35%
same,"viability, T/C",[17],10.2%
same,"viability, T/C",[18],2.99%
same,"viability, T/C",[19],101%
same,"viability, T/C",[20],70.5%
same,"viability, T/C",[21],65.7%
same,"viability, T/C",[22],32.3%
same,"viability, T/C",[23],12.6%
same,"viability, T/C",[24],3.14%
same,"viability, T/C",[25],81%
same,"viability, T/C",[26],87%
same,"viability, T/C",[27],57.4%
same,"viability, T/C",[28],27.6%
same,"viability, T/C",[29],8.96%
same,"viability, T/C",[30],1.75%
CC(C)CC(NC(=O)CNC(=O)c1cc(Cl)ccc1Cl)B1OC(=O)CC(CC(=O)O)(C(=O)O)O1 (stereo not given) + NC1CC1c1ccc(-c2cccc(O)c2)cc1,IC50,second compound 0.1 µM,> 100 nM
same,IC50,second compound 0.316 µM,> 100 nM
same,IC50,second compound 1 µM,> 100 nM
same,IC50,second compound 3.16 µM,> 100 nM
same,IC50,second compound 10 µM,99.8 nM
same,"viability, T/C",[1],92.4%
same,"viability, T/C",[2],87%
same,"viability, T/C",[3],89.8%
same,"viability, T/C",[4],72.1%
same,"viability, T/C",[5],66.2%
same,"viability, T/C",[6],55%
same,"viability, T/C",[7],96.6%
same,"viability, T/C",[8],92.1%
same,"viability, T/C",[9],80.4%
same,"viability, T/C",[10],73.3%
same,"viability, T/C",[11],74.4%
same,"viability, T/C",[12],57.5%
same,"viability, T/C",[13],98%
same,"viability, T/C",[14],91.6%
same,"viability, T/C",[15],79.3%
same,"viability, T/C",[16],71.1%
same,"viability, T/C",[17],66.8%
same,"viability, T/C",[18],53.6%
same,"viability, T/C",[19],79.6%
same,"viability, T/C",[20],78.7%
same,"viability, T/C",[21],83.9%
same,"viability, T/C",[22],65.8%
same,"viability, T/C",[23],64.3%
same,"viability, T/C",[24],51.8%
same,"viability, T/C",[25],97.1%
same,"viability, T/C",[26],93.3%
same,"viability, T/C",[27],71.4%
same,"viability, T/C",[28],70.3%
same,"viability, T/C",[29],64.8%
same,"viability, T/C",[30],47%
COc1cc(Nc2ncc3c(n2)-c2ccc(Cl)cc2C(c2c(F)cccc2OC)=NC3)ccc1C(=O)O + NC1CC1c1ccc(-c2cccc(O)c2)cc1,IC50,second compound 0.1 µM,86.2 nM
same,IC50,second compound 0.316 µM,98.9 nM
same,IC50,second compound 1 µM,62.3 nM
same,IC50,second compound 3.16 µM,54.5 nM
same,IC50,second compound 10 µM,47.7 nM
same,"viability, T/C",[3],76.9%
same,"viability, T/C",[4],73.1%
same,"viability, T/C",[5],60.4%
same,"viability, T/C",[6],47.3%
same,"viability, T/C","second compound 0.1 µM, first compound 0.316 µM",47.1%
same,"viability, T/C","second compound 0.1 µM, first compound 1 µM",39.8%
same,"viability, T/C",[9],88.9%
same,"viability, T/C",[10],84.4%
same,"viability, T/C",[11],63.9%
same,"viability, T/C",[12],50.1%
same,"viability, T/C","second compound 0.316 µM, first compound 0.316 µM",49.6%
same,"viability, T/C","second compound 0.316 µM, first compound 1 µM",44.6%
same,"viability, T/C",[15],76.1%
same,"viability, T/C",[16],82.1%
same,"viability, T/C",[17],57.4%
same,"viability, T/C",[18],46.4%
same,"viability, T/C","second compound 1 µM, first compound 0.316 µM",47.8%
same,"viability, T/C","second compound 1 µM, first compound 1 µM",40.1%
same,"viability, T/C",[21],81.3%
same,"viability, T/C",[22],72%
same,"viability, T/C",[23],53.6%
same,"viability, T/C",[24],46.1%
same,"viability, T/C","second compound 3.16 µM, first compound 0.316 µM",44.3%
same,"viability, T/C","second compound 3.16 µM, first compound 1 µM",42.1%
same,"viability, T/C",[27],87.6%
same,"viability, T/C",[28],72%
same,"viability, T/C",[29],50.7%
same,"viability, T/C",[30],50.3%
same,"viability, T/C","second compound 10 µM, first compound 0.316 µM",49.7%
same,"viability, T/C","second compound 10 µM, first compound 1 µM",43.7%
O=C(C=Cc1cccc(S(=O)(=O)Nc2ccccc2)c1)NO + NC1CC1c1ccc(-c2cccc(O)c2)cc1,IC50,second compound 0.1 µM,118 nM
same,IC50,second compound 0.316 µM,124 nM
same,IC50,second compound 1 µM,81.9 nM
same,IC50,second compound 3.16 µM,74 nM
same,IC50,second compound 10 µM,78 nM
same,"viability, T/C","second compound 0.1 µM, first compound 0.00949 µM",90.3%
same,"viability, T/C","second compound 0.1 µM, first compound 0.03 µM",78.2%
same,"viability, T/C","second compound 0.1 µM, first compound 0.0949 µM",54.6%
same,"viability, T/C","second compound 0.1 µM, first compound 0.3 µM",28.7%
same,"viability, T/C","second compound 0.1 µM, first compound 0.949 µM",11.8%
same,"viability, T/C","second compound 0.1 µM, first compound 3 µM",2.54%
same,"viability, T/C","second compound 0.316 µM, first compound 0.00949 µM",89.4%
same,"viability, T/C","second compound 0.316 µM, first compound 0.03 µM",82.5%
same,"viability, T/C","second compound 0.316 µM, first compound 0.0949 µM",55.3%
same,"viability, T/C","second compound 0.316 µM, first compound 0.3 µM",27.7%
same,"viability, T/C","second compound 0.316 µM, first compound 0.949 µM",13.8%
same,"viability, T/C","second compound 0.316 µM, first compound 3 µM",2.81%
same,"viability, T/C","second compound 1 µM, first compound 0.00949 µM",82.7%
same,"viability, T/C","second compound 1 µM, first compound 0.03 µM",69.6%
same,"viability, T/C","second compound 1 µM, first compound 0.0949 µM",46.5%
same,"viability, T/C","second compound 1 µM, first compound 0.3 µM",25.3%
same,"viability, T/C","second compound 1 µM, first compound 0.949 µM",9.19%
same,"viability, T/C","second compound 1 µM, first compound 3 µM",2.22%
same,"viability, T/C","second compound 3.16 µM, first compound 0.00949 µM",82.9%
same,"viability, T/C","second compound 3.16 µM, first compound 0.03 µM",67.5%
same,"viability, T/C","second compound 3.16 µM, first compound 0.0949 µM",44.3%
same,"viability, T/C","second compound 3.16 µM, first compound 0.3 µM",25.9%
same,"viability, T/C","second compound 3.16 µM, first compound 0.949 µM",10.2%
same,"viability, T/C","second compound 3.16 µM, first compound 3 µM",2.06%
same,"viability, T/C","second compound 10 µM, first compound 0.00949 µM",87.9%
same,"viability, T/C","second compound 10 µM, first compound 0.03 µM",73.9%
same,"viability, T/C","second compound 10 µM, first compound 0.0949 µM",40.2%
same,"viability, T/C","second compound 10 µM, first compound 0.3 µM",28.6%
same,"viability, T/C","second compound 10 µM, first compound 0.949 µM",11.8%
same,"viability, T/C","second compound 10 µM, first compound 3 µM",2.64%
